# What was measured:
# barnyard grass [1] = test: Test Example 4: herbicidal effect by soil treatment (Table 19, symbol H); assay type: in vivo, barnyard grass (Echinochloa crus-galli)
# In short: (§1)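 Seeds were sown in sterilized diluvial soil and covered with about 1.5 cm of soil. An emulsion formulation diluted with water to a predetermined herbicide amount was sprayed evenly onto the soil surface. Plants grew in a greenhouse at 25° C. to 30° C., and the effect was scored three weeks after application using criteria from an earlier test.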
# windgrass [2] = test: Test Example 5: herbicidal effect by foliage application, plastic box (Table 20, symbol L); assay type: in vivo, windgrass (Apera spica-venti)
# In short: (§2)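 Plants sown in sterilized diluvial soil and grown 14 days in a greenhouse at 25° C to 30° C, then sprayed on the foliage with the compound's emulsion diluted in water to a predetermined herbicide amount. Injury to weeds and crops scored three weeks after application on a visual rating scale.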
# windgrass [3] = test: Test Example 4: herbicidal effect by soil treatment (Table 19, symbol L); assay type: in vivo, windgrass (Apera spica-venti)
# In short: as §1
# green foxtail [4] = test: Test Example 5: herbicidal effect by foliage application, plastic box (Table 20, symbol G); assay type: in vivo, green foxtail (Setaria viridis)
# In short: as §2
# rice flat sedge = test: Test Example 3: herbicidal effect by foliage application, Wagner pot (Table 18, symbol E); assay type: in vivo, rice flat sedge (Cyperus iria)
# In short: (§3)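 Plants were sown in alluvial soil held under 0.1–0.5 cm standing water and grown 14 days in a greenhouse at 25–30 °C. An emulsifiable formulation, water-diluted to the set dose, was then sprayed onto the foliage, and effects were scored three weeks later using previously defined criteria.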
# barnyard grass [5] = test: Test Example 3: herbicidal effect by foliage application, Wagner pot (Table 18, symbol H); assay type: in vivo, barnyard grass (Echinochloa crus-galli)
# In short: as §3
# wild oat [6] = test: Test Example 5: herbicidal effect by foliage application, plastic box (Table 20, symbol I); assay type: in vivo, wild oat (Avena fatua)
# In short: as §2
# redroot pigweed [7] = test: Test Example 4: herbicidal effect by soil treatment (Table 19, symbol N); assay type: in vivo, redroot pigweed (Amaranthus retroflexus)
# In short: as §1
# southern crabgrass [8] = test: Test Example 4: herbicidal effect by soil treatment (Table 19, symbol F); assay type: in vivo, southern crabgrass (Digitaria ciliaris)
# In short: as §1
# late watergrass = test: Test Example 1: herbicidal activity, application before weed generation under submerged conditions (Table 16, symbol A); assay type: in vivo, late watergrass (Echinochloa oryzicola)
# In short: (§4)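 Alluvial soil was flooded to 4 cm depth, weed seeds were sown mixed and 2.5-leaf rice seedlings were transplanted. On sowing day, the compound's emulsion, diluted in water to a set dose, was applied to the water surface. Plants grew at 25–30 °C and were scored 0–5 after three weeks.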
# persian speedwell [9] = test: Test Example 5: herbicidal effect by foliage application, plastic box (Table 20, symbol R); assay type: in vivo, Persian speedwell (Veronica persica)
# In short: as §2
# wild oat [10] = test: Test Example 4: herbicidal effect by soil treatment (Table 19, symbol I); assay type: in vivo, wild oat (Avena fatua)
# In short: as §1
# chickweed [11] = test: Test Example 5: herbicidal effect by foliage application, plastic box (Table 20, symbol P); assay type: in vivo, common chickweed (Stellaria media)
# In short: as §2
# barnyard grass [12] = test: Test Example 5: herbicidal effect by foliage application, plastic box (Table 20, symbol H); assay type: in vivo, barnyard grass (Echinochloa crus-galli)
# In short: as §2
# blackgrass [13] = test: Test Example 4: herbicidal effect by soil treatment (Table 19, symbol J); assay type: in vivo, blackgrass (Alopecurus myosuroides)
# In short: as §1
# blackgrass [14] = test: Test Example 5: herbicidal effect by foliage application, plastic box (Table 20, symbol J); assay type: in vivo, blackgrass (Alopecurus myosuroides)
# In short: as §2
# southern crabgrass [15] = test: Test Example 5: herbicidal effect by foliage application, plastic box (Table 20, symbol F); assay type: in vivo, southern crabgrass (Digitaria ciliaris)
# In short: as §2
# lambsquarters [16] = test: Test Example 5: herbicidal effect by foliage application, plastic box (Table 20, symbol O); assay type: in vivo, lambsquarters (Chenopodium album)
# In short: as §2
# chickweed [17] = test: Test Example 4: herbicidal effect by soil treatment (Table 19, symbol P); assay type: in vivo, common chickweed (Stellaria media)
# In short: as §1
# persian speedwell [18] = test: Test Example 4: herbicidal effect by soil treatment (Table 19, symbol R); assay type: in vivo, Persian speedwell (Veronica persica)
# In short: as §1
# Italian ryegrass [19] = test: Test Example 4: herbicidal effect by soil treatment (Table 19, symbol K); assay type: in vivo, Italian ryegrass (Lolium multiflorum)
# In short: as §1
# lambsquarters [20] = test: Test Example 4: herbicidal effect by soil treatment (Table 19, symbol O); assay type: in vivo, lambsquarters (Chenopodium album)
# In short: as §1
# Japanese bulrush = test: Test Example 1: herbicidal activity, application before weed generation under submerged conditions (Table 16, symbol B); assay type: in vivo, Japanese bulrush (Schoenoplectus juncoides)
# In short: as §4
# green foxtail [21] = test: Test Example 4: herbicidal effect by soil treatment (Table 19, symbol G); assay type: in vivo, green foxtail (Setaria viridis)
# In short: as §1
# velvetleaf [22] = test: Test Example 4: herbicidal effect by soil treatment (Table 19, symbol M); assay type: in vivo, velvetleaf (Abutilon theophrasti)
# In short: as §1
# oval-leafed pondweed = test: Test Example 1: herbicidal activity, application before weed generation under submerged conditions (Table 16, symbol C); assay type: in vivo, oval-leafed pondweed (Monochoria vaginalis)
# In short: as §4
# redroot pigweed [23] = test: Test Example 5: herbicidal effect by foliage application, plastic box (Table 20, symbol N); assay type: in vivo, redroot pigweed (Amaranthus retroflexus)
# In short: as §2
# Italian ryegrass [24] = test: Test Example 5: herbicidal effect by foliage application, plastic box (Table 20, symbol K); assay type: in vivo, Italian ryegrass (Lolium multiflorum)
# In short: as §2
# Chinese sprangletop = test: Test Example 3: herbicidal effect by foliage application, Wagner pot (Table 18, symbol D); assay type: in vivo, chinese sprangletop (Leptochloa chinensis)
# In short: as §3
# velvetleaf [25] = test: Test Example 5: herbicidal effect by foliage application, plastic box (Table 20, symbol M); assay type: in vivo, velvetleaf (Abutilon theophrasti)
# In short: as §2
# [26] = foliage application, AAH 320 g/ha, three weeks after application
# [27] = amount of applied herbicide 320 g/ha
# [28] = amount of applied herbicide 320 g/ha, foliage application after 14-day growth, evaluated three weeks after application
smiles,measurement,setting,value
COCOc1c(C)nn(C)c(=O)c1-c1c(-c2ccc(OCc3ccccc3)cc2)sc2ccccc12 [1-135],"H: barnyard grass, herbicidal effect rating",barnyard grass [1]; AAH 320 g/ha,0 (Herbicidal rate of 5% or less (almost no effect))
same,"L: windgrass, herbicidal effect",windgrass [2]; [26],0 (Herbicidal rate of 5% or less (almost no effect))
same,"L: windgrass, herbicidal effect rating",windgrass [3]; AAH 320 g/ha,0 (Herbicidal rate of 5% or less (almost no effect))
same,"G: green foxtail, herbicidal effect",green foxtail [4]; [26],4 (Herbicidal rate of 70% or more and less than 90%)
same,"herbicidal effect on E (rice flat sedge), rating 0-5",rice flat sedge; 320 g/ha,3 (Herbicidal rate of 40% or more and less than 70%)
same,"herbicidal effect on H (barnyard grass), rating 0-5",barnyard grass [5]; 320 g/ha,2 (Herbicidal rate of 20% or more and less than 40%)
same,"I: wild oat, herbicidal effect",wild oat [6]; [26],0 (Herbicidal rate of 5% or less (almost no effect))
same,"N: redroot pigweed, herbicidal effect rating",redroot pigweed [7]; AAH 320 g/ha,0 (Herbicidal rate of 5% or less (almost no effect))
same,"F: southern crabgrass, herbicidal effect rating",southern crabgrass [8]; AAH 320 g/ha,2 (Herbicidal rate of 20% or more and less than 40%)
same,Herbicidal effect on A: late watergrass (grade 0-5),late watergrass; 320 g/ha applied herbicide,4 (Herbicidal rate of 70% or more and less than 90%)
same,"R: persian speedwell, herbicidal effect",persian speedwell [9]; [26],4 (Herbicidal rate of 70% or more and less than 90%)
same,"I: wild oat, herbicidal effect rating",wild oat [10]; AAH 320 g/ha,0 (Herbicidal rate of 5% or less (almost no effect))
same,"P: chickweed, herbicidal effect",chickweed [11]; [26],5 (Herbicidal rate of 90% or more (almost completely withered))
same,"H: barnyard grass, herbicidal effect",barnyard grass [12]; [26],1 (Herbicidal rate of 5% or more and less than 20%)
same,"J: blackgrass, herbicidal effect rating",blackgrass [13]; AAH 320 g/ha,0 (Herbicidal rate of 5% or less (almost no effect))
same,"J: blackgrass, herbicidal effect",blackgrass [14]; [26],0 (Herbicidal rate of 5% or less (almost no effect))
same,"F: southern crabgrass, herbicidal effect",southern crabgrass [15]; [26],0 (Herbicidal rate of 5% or less (almost no effect))
same,"O: lambsquarters, herbicidal effect",lambsquarters [16]; [26],5 (Herbicidal rate of 90% or more (almost completely withered))
same,"P: chickweed, herbicidal effect rating",chickweed [17]; AAH 320 g/ha,0 (Herbicidal rate of 5% or less (almost no effect))
same,"R: persian speedwell, herbicidal effect rating",persian speedwell [18]; AAH 320 g/ha,3 (Herbicidal rate of 40% or more and less than 70%)
same,"K: Italian ryegrass, herbicidal effect rating",Italian ryegrass [19]; AAH 320 g/ha,0 (Herbicidal rate of 5% or less (almost no effect))
same,"O: lambsquarters, herbicidal effect rating",lambsquarters [20]; AAH 320 g/ha,0 (Herbicidal rate of 5% or less (almost no effect))
same,Herbicidal effect on B: Japanese bulrush (grade 0-5),Japanese bulrush; 320 g/ha applied herbicide,3 (Herbicidal rate of 40% or more and less than 70%)
same,"G: green foxtail, herbicidal effect rating",green foxtail [21]; AAH 320 g/ha,0 (Herbicidal rate of 5% or less (almost no effect))
same,"M: velvetleaf, herbicidal effect rating",velvetleaf [22]; AAH 320 g/ha,0 (Herbicidal rate of 5% or less (almost no effect))
same,Herbicidal effect on C: oval-leafed pondweed (grade 0-5),oval-leafed pondweed; 320 g/ha applied herbicide,3 (Herbicidal rate of 40% or more and less than 70%)
same,"N: redroot pigweed, herbicidal effect",redroot pigweed [23]; [26],5 (Herbicidal rate of 90% or more (almost completely withered))
same,"K: Italian ryegrass, herbicidal effect",Italian ryegrass [24]; [26],0 (Herbicidal rate of 5% or less (almost no effect))
same,"herbicidal effect on D (Chinese sprangletop), rating 0-5",Chinese sprangletop; 320 g/ha,3 (Herbicidal rate of 40% or more and less than 70%)
same,"M: velvetleaf, herbicidal effect",velvetleaf [25]; [26],2 (Herbicidal rate of 20% or more and less than 40%)
CCCC(=O)Oc1c(C)nn(C)c(=O)c1-c1c(-c2ccc(C(=O)OC)cc2)sc2cc(F)c(F)cc12 [5-028],"H: barnyard grass, herbicidal effect grade",barnyard grass [1]; [27],0 (Herbicidal rate of 5% or less (almost no effect))
same,"Herbicidal effect by foliage application, L: windgrass",windgrass [2]; [28],0 (Herbicidal rate of 5% or less (almost no effect))
same,"L: windgrass, herbicidal effect grade",windgrass [3]; [27],0 (Herbicidal rate of 5% or less (almost no effect))
same,"Herbicidal effect by foliage application, G: green foxtail",green foxtail [4]; [28],0 (Herbicidal rate of 5% or less (almost no effect))
same,herbicidal effect on rice flat sedge (E),rice flat sedge; 344 g/ha,0 (Herbicidal rate of 5% or less (almost no effect))
same,herbicidal effect on barnyard grass (H),barnyard grass [5]; 344 g/ha,5 (Herbicidal rate of 90% or more (almost completely withered))
same,"Herbicidal effect by foliage application, I: wild oat",wild oat [6]; [28],0 (Herbicidal rate of 5% or less (almost no effect))
same,"N: redroot pigweed, herbicidal effect grade",redroot pigweed [7]; [27],3 (Herbicidal rate of 40% or more and less than 70%)
same,"F: southern crabgrass, herbicidal effect grade",southern crabgrass [8]; [27],0 (Herbicidal rate of 5% or less (almost no effect))
same,"Herbicidal effect, A: late watergrass",late watergrass; [27],0 (Herbicidal rate of 5% or less (almost no effect))
same,"Herbicidal effect by foliage application, R: persian speedwell",persian speedwell [9]; [28],4 (Herbicidal rate of 70% or more and less than 90%)
same,"I: wild oat, herbicidal effect grade",wild oat [10]; [27],0 (Herbicidal rate of 5% or less (almost no effect))
same,"Herbicidal effect by foliage application, P: chickweed",chickweed [11]; [28],5 (Herbicidal rate of 90% or more (almost completely withered))
same,"Herbicidal effect by foliage application, H: barnyard grass",barnyard grass [12]; [28],0 (Herbicidal rate of 5% or less (almost no effect))
same,"J: blackgrass, herbicidal effect grade",blackgrass [13]; [27],0 (Herbicidal rate of 5% or less (almost no effect))
same,"Herbicidal effect by foliage application, J: blackgrass",blackgrass [14]; [28],0 (Herbicidal rate of 5% or less (almost no effect))
same,"Herbicidal effect by foliage application, F: southern crabgrass",southern crabgrass [15]; [28],0 (Herbicidal rate of 5% or less (almost no effect))
same,"Herbicidal effect by foliage application, O: lambsquarters",lambsquarters [16]; [28],3 (Herbicidal rate of 40% or more and less than 70%)
same,"P: chickweed, herbicidal effect grade",chickweed [17]; [27],1 (Herbicidal rate of 5% or more and less than 20%)
same,"R: persian speedwell, herbicidal effect grade",persian speedwell [18]; [27],1 (Herbicidal rate of 5% or more and less than 20%)
same,"K: Italian ryegrass, herbicidal effect grade",Italian ryegrass [19]; [27],0 (Herbicidal rate of 5% or less (almost no effect))
same,"O: lambsquarters, herbicidal effect grade",lambsquarters [20]; [27],2 (Herbicidal rate of 20% or more and less than 40%)
same,"Herbicidal effect, B: Japanese bulrush",Japanese bulrush; [27],2 (Herbicidal rate of 20% or more and less than 40%)
same,"G: green foxtail, herbicidal effect grade",green foxtail [21]; [27],0 (Herbicidal rate of 5% or less (almost no effect))
same,"M: velvetleaf, herbicidal effect grade",velvetleaf [22]; [27],0 (Herbicidal rate of 5% or less (almost no effect))
same,"Herbicidal effect, C: oval-leafed pondweed",oval-leafed pondweed; [27],2 (Herbicidal rate of 20% or more and less than 40%)
same,"Herbicidal effect by foliage application, N: redroot pigweed",redroot pigweed [23]; [28],3 (Herbicidal rate of 40% or more and less than 70%)
same,"Herbicidal effect by foliage application, K: Italian ryegrass",Italian ryegrass [24]; [28],0 (Herbicidal rate of 5% or less (almost no effect))
same,herbicidal effect on Chinese sprangletop (D),Chinese sprangletop; 344 g/ha,0 (Herbicidal rate of 5% or less (almost no effect))
same,"Herbicidal effect by foliage application, M: velvetleaf",velvetleaf [25]; [28],3 (Herbicidal rate of 40% or more and less than 70%)

# From patent US20230085307A1, “PYRIDAZINONE COMPOUND AND HERBICIDE” (NISSAN CHEMICAL CORPORATION, priority 2019, published 2023)
